In patent EP4324461A1, “(E)-N-CINAMOYLAMINOALKANOLES WITH MELANOGENESIS INHIBITORY ACTIVITY” (UNIWERSYTET JAGIELLONSKI, priority 2022, dated 2024):
Where two headings read alike, the source gives them in different places.

How the values were obtained:
[1] = Lipophilicity coefficient RM0 by reversed phase thin layer chromatography; assay type: physicochemical; settings: RP-18 TLC, methanol / 100 mM phosphate buffer pH = 7.4
In short: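 Reversed-phase TLC on RP-18 F254 silica, with methanol/100 mM phosphate buffer pH 7.4 mobile phases of 95–65% (v/v) methanol, at room temperature, in duplicate. Spots were visualized under UV at 254 nm. RM = log(1/Rf − 1) was plotted linearly against methanol content to derive RM0.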

tyrosinase from mushroom = test: Inhibition of commercial mushroom tyrosinase (L-DOPA or L-tyrosine substrate); assay type: biochemical
In short: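 Tyrosinase (1U/well or 3U/well) in 50 mM phosphate buffer pH 6.8 with compound at final 500, 250 or 125 µM; L-DOPA (diphenolase) or L-tyrosine (monophenolase) added in separate runs. Absorbance at 475 nm after 25 min; % inhibition versus DMSO control.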

[2] = system: B16-F10 murine melanoma cell line; test: Cytotoxicity in B16-F10 cells (MTT); assay type: cell-based; settings: 48 h
In short: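 Cells in F10-Ham with 1% FBS exposed to various compound concentrations for 48 h after 24 h pre-culture. MTT read-out: formazan dissolved in DMSO, absorbance at 570 nm. Viability expressed as percent of DMSO control (AT/AC×100).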

[3] = system: human reconstructed epidermis model EpiDerm™; test: Extended skin irritation test in reconstructed human epidermis (EpiDerm), 2 and 7 days; assay type: cell-based; settings: for Il-1α in culture medium: medium after the first 24 hours
Experimental: In order to perform extended skin irritation (safety) tests on the reconstructed human epidermis, the exposure time to the tested compounds was extended to 2 and 7 days in the human reconstructed epidermis model EpiDerm™ from MatTek. The epidermis was cultured according to the manufacturer's recommendations, using appropriate multi-well plates and culture media. Solutions of the tested compounds were applied to the epidermis using a positive displacement pipette and distributed using a sterile glass bulb headed Pasteur pipette. […] The epidermis was cultured in an incubator ensuring appropriate humidity, temperature (37 °C) and CO2 concentration (5%). The medium was replaced daily. After an appropriate incubation time, i.e. 2 days or 7 days, the epidermis was rinsed with sterile DPBS and incubated with MTT (Thiazolyl Blue Tetrazolium bromide) solution at 37 °C for 3 hours. After this time, a purple color of formazan was observed, correlated with tissue viability. […] Moreover, in the medium collected after the first 24 hours of EpiDerm epidermis culture, the level of interleukin 1α (Il-1α), which is a mediator of inflammation, was determined. Its level correlates with the unfavorable (irritating) effect of the tested substances on the epidermis. The level of IL-1α was determined using the Cayman Elisa test. […] Table 6. Viability results and results of interleukin 1α concentration measurement in the culture medium in the irritation test in the reconstructed human epidermis model EpiDerm.

S. typhimurium TA1535 = test: Ames microplate test, TA1535;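 also: bacteria exposed to compound 90 min at 37 °C, then kept 48 h at 37 °C with indicator medium in 384-well plates, scoring wells that turned yellow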
Experimental: The study used the Ames microplate test (Ames MPF™ Penta 2 by Xenometrix, Allschwil, Switzerland). Growth medium, exposure medium, indicator medium, positive controls, hepatic microsomal fraction, NADP, glucose-6-phosphate, Salmonella typhimurium and Escherichia coli strains were components of the purchased experimental kit. Bacteria were grown overnight in growth medium. They were then exposed to the test compound at the appropriate concentration in exposure medium without or with the rat microsomal fraction S9 in 24-well plates for 90 min at 37 °C with shaking. Then, indicator medium was added to the wells and pipetted into 384-well plates, which were incubated for 48 hours at 37 °C without shaking. Results were assessed by counting the wells in which the medium turned yellow for each experimental condition.

[4] = L-DOPA, read-out: Tyrosinase inhibition with L-DOPA, IC50
[5] = L-tyrosine, read-out: Tyrosinase inhibition with L-tyrosine, IC50
[6] = 2 days, 1.0% in 50% PEG (10 µL)
[7] = 7 days, 1.0% in 50% PEG (10 µL)

Compound	RM0 [1]	IC50 (tyrosinase from mushroom; [4]) [µM]	Tyrosinase inhibition with L-tyrosine [%] (tyrosinase from mushroom; L-tyrosine)	IC50 (tyrosinase from mushroom; [5]) [µM]	Cytotoxicity study in B16F10 cells % viability ([2]; 150 µM) [%]	Cytotoxicity study in B16F10 cells % viability ([2]; 200 µM) [%]	Cytotoxicity study in B16F10 cells % viability ([2]; 250 µM) [%]	Il-1α in culture medium ([3]; 1.0% in 50% PEG (10 µL))	Viability [% of control, mean±SD] [3, 6]	Viability [% of control, mean±SD] [3, 7]	Increase in the number of yellow wells compared to the reference level (S. typhimurium TA1535; 0.5 mM, +S9)	Increase in the number of yellow wells compared to the reference level (S. typhimurium TA1535; 0.5 mM, without S9)	Increase in the number of yellow wells compared to the reference level (S. typhimurium TA1535; 1.0 mM, +S9)	Increase in the number of yellow wells compared to the reference level (S. typhimurium TA1535; 1.0 mM, without S9)	Increase in the number of yellow wells compared to the reference level (S. typhimurium TA1535; 2.0 mM, +S9)	Increase in the number of yellow wells compared to the reference level (S. typhimurium TA1535; 2.0 mM, without S9)	Tyrosinase inhibition with L-DOPA [%] (tyrosinase from mushroom; L-DOPA)	other results
O=C(/C=C/c1ccc(Cl)cc1)NCCCCCO [Compound A-111, (2E)-3-(4-chlorophenyl)-N-(5-hydroxypentyl)prop-2-enamide]	2.79	147	88.98±0.98% (500 µM)	37	88.2	95.6	89.7	15.89 ± .057 pg/mL	98.56±11.78 % of control	100.41±1.52 % of control	0.58	0.55	0.35	0.18	0.23	1.65		Tyrosinase inhibition with L-DOPA [%] (tyrosinase from mushroom; L-DOPA, 250 µM): 59.94±1.56% (250 µM); Viability [% of control, mean±SD] ([3]; 2 days, 0.1% in 50% PEG (10 µL)): 88.42±1.25 % of control; Viability [% of control, mean±SD] ([3]; 2 days, 0.5% in 50% PEG (10 µL)): 92.02±3.47 % of control; Viability [% of control, mean±SD] ([3]; 7 days, 0.1% in 50% PEG (10 µL)): 107.77±3.12 % of control; Viability [% of control, mean±SD] ([3]; 7 days, 0.5% in 50% PEG (10 µL)): 113.85±4.03 % of control
O=C(/C=C/c1ccccc1)NCCCCCO [Compound A-133, (2E)-N-(5-hydroxypentyl)-3-phenylprop-2-enamide]	2.15	523	58.56±4.58% (500 µM)	450	101.7	94.9	95.6	34.99 ± 1.17 pg/mL	107.19±7.45 % of control	107.26±21.82 % of control	0.47	0.92	0.23	0.55	0.35	1.10	47.96±1.83% (500 µM)	
O=C(/C=C/c1ccc(Cl)cc1)NCCCO [H-330/21, (2E)-3-(4-chlorophenyl)-N-(3-hydroxypropyl)prop-2-enamide]	1.94	265	82.49±0.65% (500 µM)	106	78.6	82.9	83.9										55.32±1.39% (500 µM)	
Cc1ccc(/C=C/C(=O)NCCCCCO)cc1 [H-415/21, (2E)-N-(5-hydroxypentyl)-3-(4-methylphenyl)prop-2-enamide]	2.49		25.04±5.67% (500 µM)		85.2	90.3	75.7					0.21		0.41		0.10	30.43±0.88% (500 µM)	
O=C(/C=C/c1ccccc1)NCCCCCCO [H-425/21, (E)-N-(6-hydroxyhexyl)cinnamic acid amide]	2.40		44.61±5.99% (500 µM)	764	109.2	98.4	86.9	60.29 ± 1.08 pg/mL	99.75±15.49 % of control	104.01±1.11 % of control	0.54	1.04	0.40	0.59	0.94	0.45	34.63±2.46% (500 µM)	
O=C(/C=C/c1ccc(Cl)cc1)NCCO [H-427/21, (2E)-3-(4-chlorophenyl)-N-(2-hydroxyethyl)prop-2-enamide]	1.93	278	67.45±2.66% (500 µM)	196	73.7	80.2	77.8										55.77±0.77% (500 µM)	
